Consider 18 compounds from US5521196A, “5-HT1F agonists for the treatment of migraine” (Eli Lilly and Company, priority 1994, dated 1996).

Each structure is given as a SMILES string. Where a name gives a salt, the structure may show the parent alone.

A word on the Ki: it is a dissociation constant, usually derived from enzyme kinetics or from competition with a known ligand.

The subject of one assay is neurogenic inflammation.
Experiment: not given
Conditions: in vivo; cited from earlier work.
`CNS(=O)(=O)Cc1ccc2[nH]cc(CCN(C)C)c2c1.O=C(O)CCC(=O)O` [Compound I, 3-[2-(dimethylamino)ethyl]-N-methyl-1H-indole-5-methanesulfonamide butane-1,4-dioate (1:1)]: the “block of neurogenic inflammation” value was “blocked”.

Another assay deals with cephalic vascular smooth muscle.
Experiment: not given
The conditions noted are these: cited from earlier work.
`CNS(=O)(=O)Cc1ccc2[nH]cc(CCN(C)C)c2c1.O=C(O)CCC(=O)O` [Compound I, 3-[2-(dimethylamino)ethyl]-N-methyl-1H-indole-5-methanesulfonamide butane-1,4-dioate (1:1)]: the “contraction of cephalic vascular smooth muscle” value is reported as “contract cephalic vascular smooth muscle”.

A further assay addresses T1, 5-HT1F receptor (Homo sapiens, UniProt P30939).
T1 sequence (P30939 1-366): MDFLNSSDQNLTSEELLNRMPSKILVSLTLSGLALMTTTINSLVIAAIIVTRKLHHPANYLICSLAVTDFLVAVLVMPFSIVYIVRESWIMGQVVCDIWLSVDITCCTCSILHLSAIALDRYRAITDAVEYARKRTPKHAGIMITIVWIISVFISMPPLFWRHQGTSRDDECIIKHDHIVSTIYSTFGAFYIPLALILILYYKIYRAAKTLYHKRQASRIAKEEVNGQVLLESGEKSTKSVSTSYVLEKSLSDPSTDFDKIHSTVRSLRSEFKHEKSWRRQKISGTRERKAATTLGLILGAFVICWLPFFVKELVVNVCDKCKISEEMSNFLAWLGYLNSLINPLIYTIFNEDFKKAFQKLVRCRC
Description: biochemical. The conditions noted are these: Table I; displacement of 4.5-5.5 nM [3H]5-HT, 37° C., 30 minutes; read-out: 5-HT1F BINDING Ki.
In the case of `Fc1ccc2[nH]cc(C3CCN(CCc4cnn(Cc5ccccc5)c4)CC3)c2c1` [Example 22, 5-fluoro-3-<1-<2-<1-benzyl-1H-pyrazol-4-yl>ethyl>-4-piperidinyl>-1H-indolehydrochloride], the Ki came out at 52.5 nM. Take `c1ccc(-n2cc(CCN3CCC(c4c[nH]c5ccccc45)CC3)cn2)cc1` [Example 23, 3-<1-<2-<1-phenyl-1H-pyrazol-4-yl>ethyl>-4-piperidinyl>-1H-indolehydrochloride]: the Ki was 4.3 nM.

As for `Cn1cc(CCN2CCC(c3c[nH]c4ccc(O)cc34)CC2)cn1` [Example 49, 5-hydroxy-3-<1-<2-<1-methyl-1H-pyrazol-4-yl>ethyl>-4-piperidinyl>-1H-indoleoxalate], the inhibitory constant (Ki) stood at 1.4 nM. Same read-out and setting: the figure for `Cn1cc(CCN2CCC(c3c[nH]c4ccc(Cl)cc34)CC2)cn1` [Example 3, 5-chloro-3-<1-<2-<1-methyl-1H-pyrazol-4-yl>ethyl>-4-piperidinyl>-1H-indolehydrochloride] is 1.7 nM. `Fc1ccccc1-n1cc(CCN2CCC(c3c[nH]c4ccc(Cl)cc34)CC2)cn1` [Example 29, 5-chloro-3-<1-<2-<1-(2-fluorophenyl)-1H-pyrazol-4-yl>ethyl>-4-piperidinyl>- 1H-indole]: the Ki stood at 10.4 nM. On the same count and under the same terms, the figure for `COc1ccc2[nH]cc(C3CCN(CCc4cnn(C)c4)CC3)c2c1` [Example 5, 5-methoxy-3-<1-<2-<1-methyl-1H-pyrazol-4-yl>ethyl>-4-piperidinyl>-1H-indoleoxalate] is 9.9 nM.

In the case of `Cn1cc(CCN2CCC(c3c[nH]c4ccccc34)CC2)cn1` [Example 1, 3-<1-<2-<1-methyl-1H-pyrazol-4-yl>ethyl>-4-piperidinyl>-1H-indolehydrochloride], the Ki worked out at 5.7 nM. On to `Cc1ccccc1-n1cc(CCN2CCC(c3c[nH]c4ccc(Cl)cc34)CC2)cn1` [Example 41, 5-chloro-3-<1-<2-<1-(2-methylphenyl)-1H-pyrazol-4-yl>ethyl>-4-piperidinyl>- 1H-indole oxalate], for which the Ki amounted to 153 nM. On the same count and under the same terms, the figure for `Cn1cc(CCN2CCC(c3c[nH]c4ccc(Br)cc34)CC2)cn1` [Example 4, 5-bromo-3-<1-<2-<1-methyl-1H-pyrazol-4-yl>ethyl>-4-piperidinyl>-1H-indoleoxalate] is 3 nM. Same read-out and setting: in the case of `Clc1ccc2[nH]cc(C3CCN(CCc4cnn(-c5ccc(Br)cc5)c4)CC3)c2c1` [Example 37, 5-chloro-3-<1-<2-<1-(4-bromophenyl)-1H-pyrazol-4-yl>ethyl>-4-piperidinyl>-1H-indole] it was 65.6 nM; in that of `CC(C)n1cc(CCN2CCC(c3c[nH]c4ccc(Br)cc34)CC2)cn1` [Example 9, 5-bromo-3-<1-<2-<1-(1-methylethyl)-1H-pyrazol-4-yl>ethyl>-4-piperidinyl>-1H-indole oxalate], 5 nM; in that of `Fc1cccc(-n2cc(CCN3CCC(c4c[nH]c5ccc(Cl)cc45)CC3)cn2)c1` [Example 30, 5-chloro-3-<1-<2-<1-(3-fluorophenyl)-1H-pyrazol-4-yl>ethyl>-4-piperidinyl>- 1H-indole oxalate], 51 nM. For `COc1ccc2[nH]cc(C3CCN(CCc4cnn(-c5ccccc5)c4)CC3)c2c1` [Example 27, 5-methoxy-3-<1-<2-<1-phenyl-1H-pyrazol-4-yl>ethyl>-4-piperidinyl>-1H-indoleoxalate], the Ki was 9.5 nM.

On to `NC(=O)c1ccc2[nH]cc(C3CCN(CCc4cnn(-c5ccccc5)c4)CC3)c2c1` [Example 28, 5-carboxamido-3-<1-<2-<1-phenyl-1H-pyrazol-4-yl>ethyl>-4-piperidinyl>-1H-indole], for which the Ki came out at 24 nM.

On to `Oc1ccc2[nH]cc(C3CCN(CCc4cnn(-c5ccccc5)c4)CC3)c2c1` [Example 52, 5-hydroxy-3-<1-<2-<1-phenyl-1H-pyrazol-4-yl>ethyl>-4-piperidinyl>-1H-indole], for which the Ki is 2.4 nM.

In the case of `CC(C)n1cc(CCN2CCC(c3c[nH]c4ccccc34)CC2)cn1` [Example 6, 3-<1-<2-<1-(1-methylethyl)-1H-pyrazol-4-yl>ethyl>-4-piperidinyl>-1H-indolehydrochloride], the inhibition constant Ki is 4.5 nM.

Test system in the next assay: not given
Experiment: not given
The conditions noted are these: in vivo; cited from earlier work.
Take `CNS(=O)(=O)Cc1ccc2[nH]cc(CCN(C)C)c2c1.O=C(O)CCC(=O)O` [Compound I, 3-[2-(dimethylamino)ethyl]-N-methyl-1H-indole-5-methanesulfonamide butane-1,4-dioate (1:1)]: the “effectiveness in the treatment of migraine” value was “effective in the treatment of migraine”.

Another assay relates to protein extravasation in the dura from stimulation of the trigeminal ganglion.
Experiment: not given
Conditions: iv.
Consider `CNS(=O)(=O)Cc1ccc2[nH]cc(CCN(C)C)c2c1.O=C(O)CCC(=O)O` [Compound I, 3-[2-(dimethylamino)ethyl]-N-methyl-1H-indole-5-methanesulfonamide butane-1,4-dioate (1:1)], for which the “Inhibition of Protein Extravasation, i.v. ID50” value turned out to be 2.6e-08 nmol/kg. The same measure, in the same setting: the figure for `CCN(CC)C1CCc2cccc(Cl)c2C1.Cl` (stereo not drawn) [Compound IV, 8-chloro-2-diethylamino-1,2,3,4-tetrahydronaphthalene hydrochloride] is 1.2e-07 nmol/kg.
